Structures can show the parent of a compound that is named as a salt.
How the values were obtained:
NanoLuc-ULK2 (NanoBRET) [1] = biological target: T1, NanoLuc-ULK2 (NanoBRET) (Homo sapiens, UniProt Q8IYT8); experiment: NanoBRET tracer displacement in live HEK293T cells; type: cell-based
T1 sequence (Q8IYT8 1-1036): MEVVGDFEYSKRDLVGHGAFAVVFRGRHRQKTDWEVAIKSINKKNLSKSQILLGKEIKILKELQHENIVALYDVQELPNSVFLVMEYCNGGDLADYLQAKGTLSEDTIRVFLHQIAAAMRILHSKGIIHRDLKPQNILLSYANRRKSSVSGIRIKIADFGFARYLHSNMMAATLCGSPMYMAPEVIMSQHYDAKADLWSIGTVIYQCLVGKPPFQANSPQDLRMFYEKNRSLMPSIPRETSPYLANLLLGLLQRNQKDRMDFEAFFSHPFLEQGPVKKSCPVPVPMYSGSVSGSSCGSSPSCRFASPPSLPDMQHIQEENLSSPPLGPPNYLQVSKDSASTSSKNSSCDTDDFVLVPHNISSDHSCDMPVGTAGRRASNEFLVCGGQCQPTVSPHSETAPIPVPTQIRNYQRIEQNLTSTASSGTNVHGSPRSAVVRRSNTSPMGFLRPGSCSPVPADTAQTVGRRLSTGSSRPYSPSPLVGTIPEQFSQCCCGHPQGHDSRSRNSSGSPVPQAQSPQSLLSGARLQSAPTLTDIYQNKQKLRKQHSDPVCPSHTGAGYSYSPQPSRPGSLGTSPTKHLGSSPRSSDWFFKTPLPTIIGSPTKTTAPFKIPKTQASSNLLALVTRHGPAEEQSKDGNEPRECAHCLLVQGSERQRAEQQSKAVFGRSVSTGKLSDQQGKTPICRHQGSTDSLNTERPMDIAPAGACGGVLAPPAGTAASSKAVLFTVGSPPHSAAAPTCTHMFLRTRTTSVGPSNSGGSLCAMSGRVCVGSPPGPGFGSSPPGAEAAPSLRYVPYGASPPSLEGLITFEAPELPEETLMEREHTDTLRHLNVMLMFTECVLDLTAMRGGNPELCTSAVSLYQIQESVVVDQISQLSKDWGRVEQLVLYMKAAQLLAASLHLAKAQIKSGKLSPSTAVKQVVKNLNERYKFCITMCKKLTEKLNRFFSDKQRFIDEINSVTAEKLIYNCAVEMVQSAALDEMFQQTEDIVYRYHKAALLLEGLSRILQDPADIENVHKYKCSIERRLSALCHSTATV

[2] = biological target: T2, ULK2 (recombinant human ULK2 protein 1-478, ADP-Glo) (Homo sapiens, UniProt Q8IYT8); experiment: ADP-Glo kinase assay; type: biochemical
T2 sequence (Q8IYT8 1-478): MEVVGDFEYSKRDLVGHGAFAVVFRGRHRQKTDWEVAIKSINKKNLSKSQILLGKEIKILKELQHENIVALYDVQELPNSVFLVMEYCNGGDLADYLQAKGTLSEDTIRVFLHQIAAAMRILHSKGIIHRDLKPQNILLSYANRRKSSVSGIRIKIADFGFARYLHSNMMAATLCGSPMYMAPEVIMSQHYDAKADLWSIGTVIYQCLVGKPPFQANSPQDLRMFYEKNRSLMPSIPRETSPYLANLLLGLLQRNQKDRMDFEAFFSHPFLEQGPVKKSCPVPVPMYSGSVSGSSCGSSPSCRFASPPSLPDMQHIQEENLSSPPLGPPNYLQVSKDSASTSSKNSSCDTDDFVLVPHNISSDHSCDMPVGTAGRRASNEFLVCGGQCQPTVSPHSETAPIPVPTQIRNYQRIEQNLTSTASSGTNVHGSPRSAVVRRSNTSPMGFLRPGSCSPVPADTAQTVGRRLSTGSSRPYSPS

[3] = biological target: T3, ULK2 kinase domain (1-276) (Homo sapiens, UniProt Q8IYT8); experiment: biochemical; details: read-out: ULK2 PTS (ºC)
T3 sequence (Q8IYT8 1-276): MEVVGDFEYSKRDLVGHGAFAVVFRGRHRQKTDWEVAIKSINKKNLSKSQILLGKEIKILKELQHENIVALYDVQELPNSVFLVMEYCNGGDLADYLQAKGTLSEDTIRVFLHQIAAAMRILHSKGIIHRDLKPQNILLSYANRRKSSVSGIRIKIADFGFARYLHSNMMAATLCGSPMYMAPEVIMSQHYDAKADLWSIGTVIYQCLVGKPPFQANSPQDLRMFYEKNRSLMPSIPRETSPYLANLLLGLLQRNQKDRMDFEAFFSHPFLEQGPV

NanoLuc-ULK2 (NanoBRET) [4] = biological target: T1, NanoLuc-ULK2 (NanoBRET); experiment: cell-based; design: species or system HEK293T
[5] = biological target: T2, ULK2 (recombinant human ULK2 protein 1-478, ADP-Glo); experiment: biochemical
NanoLuc-ULK1 (NanoBRET) = biological target: T4, NanoLuc-ULK1 (NanoBRET) (Homo sapiens, UniProt O75385); experiment: NanoBRET tracer displacement in live HEK293T cells; type: cell-based
T4 sequence (O75385 1-1050): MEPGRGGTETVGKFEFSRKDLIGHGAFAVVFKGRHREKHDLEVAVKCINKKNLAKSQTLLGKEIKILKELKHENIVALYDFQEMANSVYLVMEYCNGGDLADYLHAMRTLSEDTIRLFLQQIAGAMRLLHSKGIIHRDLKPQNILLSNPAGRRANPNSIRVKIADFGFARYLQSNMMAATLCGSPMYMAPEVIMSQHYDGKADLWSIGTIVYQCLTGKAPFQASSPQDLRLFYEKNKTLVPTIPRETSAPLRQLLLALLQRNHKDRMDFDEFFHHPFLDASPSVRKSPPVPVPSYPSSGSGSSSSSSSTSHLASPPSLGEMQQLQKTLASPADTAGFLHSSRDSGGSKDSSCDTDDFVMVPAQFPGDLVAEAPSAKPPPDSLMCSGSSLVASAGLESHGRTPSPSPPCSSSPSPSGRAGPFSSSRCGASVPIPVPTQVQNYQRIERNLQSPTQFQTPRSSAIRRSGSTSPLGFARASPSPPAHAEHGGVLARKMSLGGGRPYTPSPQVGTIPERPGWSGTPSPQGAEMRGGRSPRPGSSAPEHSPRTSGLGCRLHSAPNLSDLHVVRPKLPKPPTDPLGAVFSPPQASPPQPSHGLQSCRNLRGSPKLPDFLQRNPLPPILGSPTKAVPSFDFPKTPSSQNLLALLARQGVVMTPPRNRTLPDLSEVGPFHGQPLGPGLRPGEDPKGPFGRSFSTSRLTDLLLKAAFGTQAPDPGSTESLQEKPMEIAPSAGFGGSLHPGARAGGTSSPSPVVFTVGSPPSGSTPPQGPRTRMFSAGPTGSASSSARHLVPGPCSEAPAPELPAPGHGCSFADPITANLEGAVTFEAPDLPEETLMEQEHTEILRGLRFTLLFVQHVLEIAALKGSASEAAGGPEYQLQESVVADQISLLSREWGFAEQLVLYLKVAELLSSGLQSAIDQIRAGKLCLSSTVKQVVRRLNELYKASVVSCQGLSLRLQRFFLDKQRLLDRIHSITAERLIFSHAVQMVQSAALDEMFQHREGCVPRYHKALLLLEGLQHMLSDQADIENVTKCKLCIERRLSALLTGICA

[6] = biological target: T5, ULK1 (recombinant human ULK1 protein 1-649, ADP-Glo) (Homo sapiens, UniProt O75385); experiment: ADP-Glo kinase assay; type: biochemical
T5 sequence (O75385 1-649): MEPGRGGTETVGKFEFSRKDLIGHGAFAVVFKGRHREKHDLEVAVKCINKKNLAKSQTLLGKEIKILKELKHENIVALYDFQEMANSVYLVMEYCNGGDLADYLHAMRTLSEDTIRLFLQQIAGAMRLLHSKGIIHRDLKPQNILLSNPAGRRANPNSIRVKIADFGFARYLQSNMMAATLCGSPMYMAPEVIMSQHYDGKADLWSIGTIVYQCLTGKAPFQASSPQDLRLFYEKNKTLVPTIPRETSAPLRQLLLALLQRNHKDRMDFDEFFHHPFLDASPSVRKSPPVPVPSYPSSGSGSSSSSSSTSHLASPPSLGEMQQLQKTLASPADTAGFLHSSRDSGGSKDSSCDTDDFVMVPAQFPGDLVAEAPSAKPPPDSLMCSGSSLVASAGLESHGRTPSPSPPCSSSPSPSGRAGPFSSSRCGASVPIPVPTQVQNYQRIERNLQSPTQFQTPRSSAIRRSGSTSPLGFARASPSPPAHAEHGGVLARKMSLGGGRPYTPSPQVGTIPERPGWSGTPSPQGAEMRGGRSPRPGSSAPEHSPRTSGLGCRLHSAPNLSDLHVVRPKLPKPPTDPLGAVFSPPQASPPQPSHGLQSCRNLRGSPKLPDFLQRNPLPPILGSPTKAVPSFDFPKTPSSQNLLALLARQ

SMILES | IC50 (NanoLuc-ULK2 (NanoBRET) [1]) [nM] | IC50 [2] [nM] | ΔTm at 10 µM [3] [°C] | IC50 (NanoLuc-ULK2 (NanoBRET) [4]) [nM] | IC50 [5] [nM] | IC50 (NanoLuc-ULK1 (NanoBRET)) [nM] | IC50 [6] [nM]
COc1cc(Nc2ncc(C(F)(F)F)c(NC3CC3)n2)cc(OC)c1OC [compound 1] | 172 ± 33 | 64 ± 22 | – | – | – | – | –
O=C1CCc2cc(Nc3ncc(C(F)(F)F)c(NC4CC4)n3)ccc2N1 [compound 2, 6-((4-(Cyclopropylamine)-5-(trifluoromethyl)pyrimidine-2-yl)amino)-3,4-dihydroquinoline-2(1H)-one] | 174 | 118 ± 34 | – | – | – | – | –
O=C1Cc2cc(Nc3ncc(C(F)(F)F)c(NC4CC4)n3)ccc2N1 [compound 3, 5-((4-(Cyclopropylamine)-5-(trifluoromethyl)pyrimidin-2-yl)amino)indolin-2-one] | – | – | 3 ± 1.3 | 1100 ± 454 | 704 ± 63 | – | –
COc1cc(Nc2ncc(Br)c(NC3CC3)n2)cc(OC)c1OC [compound 6, 5-Bromo-N4-cyclopropyl-N2-(3,4,5-trimethoxyphenyl)pyrimidine-2,4-diamine] | – | – | 7 ± 0.7 | 1470 ± 261 | 217 ± 108 | – | –
O=C1CCc2cc(Nc3ncc(Br)c(NC4CC4)n3)ccc2N1 [compound 7, 6-((5-Bromo-4-(cyclopropylamine)pyrimidin-2-yl)amino)-3,4-dihydroquinolin-2(1H)-one] | – | – | 2 ± 0.8 | 1580 ± 325 | 896 ± 92 | – | –
O=C1CCc2cc(Nc3nccc(NC4CC4)n3)ccc2N1 [compound 8, 8] | – | – | – | – | – | > 10000 | 2330 ± 667

Second part, the compound after the results:

IC50 (NanoLuc-ULK2 (NanoBRET) [1]) [nM] | IC50 [2] [nM] | ΔTm at 10 µM [3] [°C] | IC50 (NanoLuc-ULK2 (NanoBRET) [4]) [nM] | IC50 [5] [nM] | IC50 (NanoLuc-ULK1 (NanoBRET)) [nM] | IC50 [6] [nM] | SMILES
– | – | – | – | – | > 10000 | 25 ± 6 | O=C1CCc2cc(Nc3ncc(C(F)(F)F)c(NC4CCCC4)n3)ccc2N1 [compound 12, 6-((4-(Cyclopentylamine)-5-(trifluoromethyl)pyrimidin-2-yl)amino)-3,4-dihydroquinolin-2(1H)-one]
– | – | 4 ± 0.1 | 1820 ± 599 | 464 ± 90 | – | – | O=C1CCc2cc(Nc3ncc(C(F)(F)F)c(NCC(F)(F)F)n3)ccc2N1 [compound 14, 6-((4-((2,2,2-Trifluoroethyl)amino)-5-(trifluoromethyl)pyrimidin-2-yl)amino)-3,4 dihydroquinolin-2(1H)-one]
– | – | 8 ± 0.1 | 875 ± 131 | 980 ± 62 | – | – | O=C1CCc2cc(Nc3ncc(C(F)(F)F)c(NCCO)n3)ccc2N1 [compound 15, 6-((4-((2-Hydroxyethyl)amino)-5-(trifluoromethyl)pyrimidin-2-yl)amino)-3,4-dihydroquinolin-2(1H)-one]
– | – | 7.5 | 77 ± 13 | 480 ± 65 | – | – | NCCCNc1nc(Nc2ccc3c(c2)CCC(=O)N3)ncc1C(F)(F)F [compound 19, 6-((4-((3-Aminopropyl)amino)-5-(trifluoromethyl)pyrimidin-2-yl)amino)-3,4 dihydroquinolin-2(1H)-one·HCl]
44 ± 10 | 50 ± 12 | 8 ± 0.6 | – | – | – | – | O=C1CCc2cc(Nc3ncc(C(F)(F)F)c(NCCCNC(=O)C4CC4)n3)ccc2N1 [compound 21, N-(3-((2-((2-Oxo-1,2,3,4-tetrahydroquinolin-6-yl)amino)-5-(trifluoromethyl)pyrimidin-4-yl)amino)propyl)cyclopropanecarboxamide]

— article doi:10.1101/2025.09.05.674519v1 (biorxiv, 2025)
